Consider 5 molecules from US20040077602A1, “Mixture composition for controlling ectoparasites” (Meiji Seika Kaisha, Ltd., priority 2002, published 2004).

The assay relates to Dermanyssus gallinae. As to the kind of experiment: Miticidal effect against Dermanyssus gallinae (Pasteur pipette residual contact test, Test Example 1). It counts as in vivo. Conditions: single agent, sucking adult mites, 25° C. The text has this: Miticidal Effect Against Dermanyssus gallinae
The tip of a Pasteur pipette was sealed with Parafilm, and a sample compound diluted with acetone to a designated concentration was poured into the pipette from its top. The Parafilm in the tip of the pipette was removed one min after the pouring to discharge the test solution, and the pipette was air dried. Thereafter, an absorbent cotton was inserted into the upper end of the pipette, and sucking adult mites of Dermanyssus gallinae were released in the pipette. The tip of the pipette was sealed with Hematoseal, and the pipette was then placed in a desiccator containing a saturated ammonium sulfate solution in its bottom and was stored under fully darkened conditions at 25° C. The mites were observed under a stereomicroscope 4 hr after and 24 hr after the treatment to judge whether the mites were dead or survived, followed by determination of the miticidal rate (%).

Each structure is given as a SMILES string.

On to `COC(=O)Oc1c(C)c(C)nc2ccc(F)c(F)c12` [Compound 25, 2,3-dimethyl-4-methoxycarbonyloxy-5,6-difluoroquinoline], for which, under “5 ppm”, the “Miticidal rate 4 hr after treatment” value is recorded as 70% and the “Miticidal rate 24 hr after treatment” value was 80%.

Regarding `CC1(C)C(C=C(Cl)Cl)C1C(=O)OCc1cccc(Oc2ccccc2)c1` (stereo not shown) [Permethrin, permethrin], under “50 ppm”, the “Miticidal rate 4 hr after treatment” value was 0% and the “Miticidal rate 24 hr after treatment” value was determined as 0%.

For `CC1(C)C(C=C(Cl)c2ccc(Cl)cc2)C1C(=O)OC(C#N)c1ccc(F)c(Oc2ccccc2)c1` (stereo not shown) [Flumethrin, flumethrin], for the setting “50 ppm”, the “Miticidal rate 4 hr after treatment” value worked out at 5% and the “Miticidal rate 24 hr after treatment” value came out at 10%.

As for `CCc1nc2ccc(F)c(F)c2c(OC(=O)C2CC2)c1C` [Compound 2, 2-ethyl-3-methyl-4-cyclopropanecarbonyloxy-5,6-difluoroquinoline], where the note is “5 ppm”, the “Miticidal rate 4 hr after treatment” value came out at 40% and the “Miticidal rate 24 hr after treatment” value turned out to be 50%.

Regarding `CC1(C)C(C=C(Cl)Cl)C1C(=O)OC(C#N)c1ccc(F)c(Oc2ccccc2)c1` (stereo not shown) [Cyfluthrin, cyfluthrin], where the note is “50 ppm”, the “Miticidal rate 4 hr after treatment” value was 0% and the “Miticidal rate 24 hr after treatment” value came to 0%.
